Results on one molecule are retold here after patent US7745465B2, “Method of enhancing cellular production of molecular chaperone, hydroxylamine derivatives useful for enhancing the chaperone production and the preparation thereof” (CytRx Corporation, priority 1995, dated 2010).

Structures are written as SMILES.

One assay relates to Hsp60. Nature of the assay: Western blot of hsp60 in heat shocked H9c2 cells. It is filed as cell-based, rat. As to the method: Experiments set forth in this section were conducted to determine whether N-[2-hydroxy-3-(1-piperidinyl)propoxy]-3-pyridinecarboximidoyl chloride maleate acts to increase the expression of molecular chaperon by a cell. The accumulation of different heat shock proteins subsequent to a period of exposure to heat shock alone, and to heat shock in combination with N-[2-hydroxy-3-(1-piperidinyl)propoxy]-3-pyridinecarboximidoyl chloride maleate administration, was examined by adding 10^−5 M of N-[2-hydroxy-3-(1-piperidinyl)propoxy]-3-pyridinecarboximidoyl chloride maleate before, during, or immediately after hyperthermic treatment of heart myogenic cells (H9c2 cells).
The embryonic rat heart-derived cell line H9c2 was obtained from European Collection of Animal cell Cultures (ECACC) (88092904). The cells were maintained at 37° C. in Dulbecco's modified Eagle's medium (DMEM) supplemented with 10% fetal calf serum (GIBCO) in JOUAN C02 thermostat (5% CO2).
Heat shock was performed at 43° C. in CO2 thermostat for the given time intervals (20, 40, 60, 90 and 120 min.). Cells were then taken back to 37° C. for 6 hours and proteins were extracted for SDS-PAGE. When N-[2-hydroxy-3-(1-piperidinyl)propoxy ]-3-pyridinecarboximidoyl chloride maleate was added before heat shock. 10^−5 M N-[2-hydroxy-3-(1-piperidinyl)propoxy]-3-pyridinecarboximidoyl chloride maleate was administered for 16 hours before the stress. In other set of experiments, N-[2-hydroxy-3-(1-piperidinyl)propoxy]-3-pyridinecarboximidoyl chloride maleate was added in 10^−5 M concentration right after heat stress, during the 6 hours recovery period. The experiments were repeated three times.
For SDS-P AGE, cells were grown in 6 cm Petri dishes. The amount of the cells at the start of the experiment was 8×10^5 and were still suconfluent when proteins were extracted. After the 6 hours recovery cells were washed two times in PBS then scrapped from the surface of the dishes in PBS. […]
Protein concentration was determined from 5:1 samples by the Bradford assay (M. M. Braford, Anal. Biochem., 72: 248-254 (1976)) in three parallel. […]

Another assay concerns hsp26 mRNA. The assay can be described thus: Northern blot of hsp26 mRNA in S. cerevisiae. It is filed as cell-based, Saccharomyces cerevisiae. As to conditions: 10-100 μM for 5 min. to 1 hour at 25° C. As for the experimental part: To S. cerevisiae cells that were maintained at 25° C., varying concentration of N-[2-hydroxy-3-(1-piperidinyl)propoxy]-3-piridinecarboximidoyl chloride maleate was introduced (concentrations between 10 to 100 μM), cells were then incubated for one hour at 25° C. in the presence of N-[2-hydroxy-3-(1-piperidinyl)propoxy]-3-piridinecarboximidoyl chloride maleate. The temperature was then increased to 42° C., and the oxygraph measurements were taken as described in the Patriarca reference.
The cells treated with N-[2-hydroxy-3-(1-piperidinyl)propoxy]-3-pyridine carboximidoyl chloride maleate were tested for concomitant induction of hsp genes, using Northern Blotting procedure. The method of extracting, purifying mRNAs from eukaryotic cells, and analyzing the RNA thus obtained using Northern blotting procedure is well known in the art and described in Maniatis, and Maresca, et al. Archives Medial Research 24: 247-249 (1993), both of the references being fully incorporated herein. The Northern blotting protocol is also described in Example 7 set forth above. Hsp 26 and hsp70 DNA sequences were used as probes.

The test system of another assay is TNF treated WEHI 164. Nature of the assay: Protection of cells against cytotoxic cytokines (TNF). The assay is classed as cell-based. The note with it: WEHI 164 (and other mammalian) cells.
A further assay relates to HSP72. The assay can be described thus: Heat stress induced HSP72 production in 3T3 cells. The assay is classed as cell-based, mouse. The note with it: 10^−5 M. The method in brief:
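Mouse 3T3 fibroblasts in MEM monolayer were heat-stressed 30 min at 43° C, with test compounds at 10^−5 M given 15 min before or 100 min after stress. HSP72 detected by immunoblot with SPA 810 primary and HRP secondary antibodies, quantified by densitometry.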

`O=C(O)/C=C\C(=O)O.OC(CON=C(Cl)c1cccnc1)CN1CCCCC1` (stereo not shown) [N-[2-hydroxy-3-(1-piperidinyl)-propoxy]3-pyridinecarboximidoyl chloride maleate]: the “amount of hsp60 increased (compared to 37° C. control)” value in the assay on Hsp60 (10^−5 M added 16 hours before heat stress, 20 min. heat treatment at 43° C.) is recorded as “about fivefold”. Also, the “effect on the level of hsp60” value in the assay on Hsp60 (added during the recovery phase) is recorded as “also effective though to a significantly lesser extent”; in the assay on Hsp60 (treatment at 37° C., no heat shock), “no measurable effect”. In addition, the “induction of hsp 26” value in the assay on hsp26 mRNA was “induction of hsp 26 was observed”. The “survival rate of TNF treated cells” value with TNF treated WEHI 164 is “increased the survival rate”. Also, the “HSP72 level relative to the stress exposed control” value with HSP72 (treatment 15 min. before 30 min. 43° C. heat stress) is reported as “+++ (>100%)”; with HSP72 (treatment 100 min. after 30 min. 43° C. heat stress) it was 0 (0 indicates that the treatment altered by ±20% the stress induced hsp72 level in the cells).
